From paper PMC8998978, “Toward a Treatment of Cancer: Design and In Vitro/In Vivo Evaluation of Uncharged Pyrazoline Derivatives as a Series of Novel SHP2 Inhibitors” (International Journal of Molecular Sciences, 2022)

System: HCT116 cells xenograft
Experiment: Anti-tumor activity in vivo, HCT116 xenograft model
Set-up: species or system BALB/c-nude mice
Details: 4o 25, 50 mg/kg or 5-FU 25 mg/kg, 13 days
Description: Male BALB/c-nude mice (Jinan Pengyue Experimental Animal Breeding Co., Ltd., Jinan, China), 5 weeks of age, were used. The mice were housed in a specific pathogen-free room with temperature controlled (22 ± 2 °C), humidity (55 ± 10%) and a light/dark cycle of 12 h, providing sterile food and water. The HCT116 cells xenograft model was conducted, and 1 × 10^7 HCT116 cells were subcutaneously injected into the right armpit of mice. The tumor volume of mice was measured every three days to evaluate the tumor growth. When the tumor volume reached about 100 mm^3, the mice were randomly divided into four groups (n = 6), and treated with vehicle (0.5% CMC-Na solution) or 4o (25, 50 mg/kg) by gavage once a day for 13 consecutive days. A total of 25 mg/kg 5-FU was used as a positive control. The body weight of mice was measured every three days. The length (L) and width (W) of tumors were measured by electronic caliper every three days. The volume (V) was calculated as follows: V = (L × W^2)/2. When the tumor volume reached about 1000 mm^3, the tumors were excised. Immunohistochemical analysis were used to evaluate the related protein levels.

| Molecule | Effect on body weight of tumor-bearing mice |
| --- | --- |
| O=c1[nH]cc(F)c(=O)[nH]1 [Compound 5-FU, 5-fluorouracil, reference compound] | showed a decrease |

Same assay, conditions: 5-FU 25 mg/kg, positive drug, 13 days

| Molecule | Tumor inhibition rate [%] |
| --- | --- |
| O=c1[nH]cc(F)c(=O)[nH]1 [Compound 5-FU, 5-fluorouracil, reference compound] | 54.8 |

Biological target: T1, recombinant human SHP2 protein (Homo sapiens, UniProt Q06124)
T1 sequence (Q06124 1-593): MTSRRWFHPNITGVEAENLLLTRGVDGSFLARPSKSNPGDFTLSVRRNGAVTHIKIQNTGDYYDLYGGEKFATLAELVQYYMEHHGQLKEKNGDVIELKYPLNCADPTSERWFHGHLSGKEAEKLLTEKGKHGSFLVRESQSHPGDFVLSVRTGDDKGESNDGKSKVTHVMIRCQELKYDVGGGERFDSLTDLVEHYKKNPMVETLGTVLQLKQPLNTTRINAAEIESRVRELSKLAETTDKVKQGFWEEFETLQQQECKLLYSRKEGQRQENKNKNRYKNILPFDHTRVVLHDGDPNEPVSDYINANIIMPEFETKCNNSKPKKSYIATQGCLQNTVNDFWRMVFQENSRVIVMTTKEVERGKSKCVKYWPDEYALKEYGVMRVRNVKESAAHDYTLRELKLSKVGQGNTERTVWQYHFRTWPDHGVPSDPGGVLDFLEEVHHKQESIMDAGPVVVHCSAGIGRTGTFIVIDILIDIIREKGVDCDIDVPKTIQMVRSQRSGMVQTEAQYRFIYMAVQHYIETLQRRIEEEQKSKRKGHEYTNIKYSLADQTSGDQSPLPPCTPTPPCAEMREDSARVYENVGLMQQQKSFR
Experiment: SHP2 inhibition assay (pNPP substrate)
Assay type: biochemical
Details: pNPP 4 mM, SHP2 240 nM, 37 °C, 30 min; means ± SD
Description: pGEX-4T1 SHP2 WT (plasmid #8322) was purchased from Addgene. […] Then, 0.2 mM IPTG (Sangon Biotech, Shanghai, China) was added to induce the expression of protein at 30 °C for 4 h followed by centrifugation and cells collection. Cells were then broken by ultrasound in lysis buffer (20 mM Tris–HCl (pH 8.0), 100 mM KCl, 10% glycerol, 1 mM DTT, 0.5% Triton X-100) on ice. The supernatant was collected by centrifugation at 10,000× g for 15 min at 4 °C. The BeaverBeads GSH (Beaver Biosciences Inc., Guangzhou, China) washed by lysis buffer were incubated with the supernatant for 2 h at 4 °C. […] Then, the experiment was performed in a final volume of 100 μL containing 10 mM Tris–HCl (pH 7.5), 25 mM NaCl, 1 mM EDTA and 4 mM pNPP in a 96-well plate at 37 °C for 30 min. The amount of product p-nitrophenol was determined by the absorbance at 405 nm in a multimode reader (Berthold Technologies GmbH & Co.KG, Bad Wildbad, Baden Württemberg, Germany). The IC50 value was calculated by GraphPad Prism 7.0 software (GraphPad Inc, San Diego, CA, USA).

| IC50 [µM] | Molecule |
| --- | --- |
| 13.3 ± 2.11 | CCOc1ccc(Oc2ccc(C3=NN(C=O)C(c4ccc(O)c(O)c4)C3)cc2)cc1 (stereo not drawn) [Compound 4a, 5-(3,4-dihydroxyphenyl)-3-(4-(4-ethoxyphenoxy)phenyl)-4,5-dihydro-1H-pyrazole-1-carbaldehyde] |
| 13.7 ± 1.98 | CC(C)(C)c1ccc(Oc2ccc(C3=NN(C=O)C(c4ccc(O)c(O)c4)C3)cc2)cc1 (stereo not drawn) [Compound 4b, 3-(4-(4-(tert-butyl)phenoxy)phenyl)-5-(3,4-dihydroxyphenyl)-4,5-dihydro-1H-pyrazole-1-carbaldehyde] |
| 34.2 ± 5.9 | CCC(=O)N1N=C(c2ccc(Oc3ccccc3)cc2)CC1c1ccc(O)c(O)c1 (stereo not drawn) [Compound 4c, 1-(5-(3,4-dihydroxyphenyl)-3-(4-phenoxyphenyl)-4,5-dihydro-1H-pyrazol-1-yl)propan-1-one] |
| 9.51 ± 2.01 | CCCC(=O)N1N=C(c2ccc(Oc3ccccc3)cc2)CC1c1ccc(O)c(O)c1 (stereo not drawn) [Compound 4d, 1-(5-(3,4-dihydroxyphenyl)-3-(4-phenoxyphenyl)-4,5-dihydro-1H-pyrazol-1-yl)butan-1-one] |
| 5.96 ± 0.92 | CCOc1ccc(Oc2ccc(C3=NN(C(N)=S)C(c4ccc(O)c(O)c4)C3)cc2)cc1 (stereo not drawn) [Compound 4e, 5-(3,4-dihydroxyphenyl)-3-(4-(4-ethoxyphenoxy)phenyl)-4,5-dihydro-1H-pyrazole-1-carbothioamide] |
| 13.2 ± 1.89 | COc1ccc(C2=NN(C(N)=S)C(c3ccc(O)c(O)c3)C2)cc1 (stereo not drawn) [Compound 4f, 5-(3,4-dihydroxyphenyl)-3-(4-methoxyphenyl)-4,5-dihydro-1H-pyrazole-1-carbothioamide] |
| 5.97 ± 0.88 | NC(=S)N1N=C(c2ccc(Oc3ccccc3)cc2)CC1c1ccc(O)c(O)c1 (stereo not drawn) [Compound 4g, 5-(3,4-dihydroxyphenyl)-3-(4-phenoxyphenyl)-4,5-dihydro-1H-pyrazole-1-carbothioamide] |
| 8.44 ± 2.03 | CC(C)(C)c1ccc(Oc2ccc(C3=NN(C(N)=S)C(c4ccc(O)c(O)c4)C3)cc2)cc1 (stereo not drawn) [Compound 4h, 3-(4-(4-(tert-butyl)phenoxy)phenyl)-5-(3,4-dihydroxyphenyl)-4,5-dihydro-1H-pyrazole-1-carbothioamide] |
| 20.4 ± 2.45 | NC(=S)N1N=C(c2ccc(Br)cc2)CC1c1ccc(O)c(O)c1 (stereo not drawn) [Compound 4i, 3-(4-bromophenyl)-5-(3,4-dihydroxyphenyl)-4,5-dihydro-1H-pyrazole-1-carbothioamide] |
| 11.4 ± 1.56 | COc1ccc(C2=NN(C3=NC(=O)CS3)C(c3ccc(O)c(O)c3)C2)cc1 (stereo not drawn) [Compound 4j, 2-(5-(3,4-dihydroxyphenyl)-3-(4-methoxyphenyl)-4,5-dihydro-1H-pyrazol-1-yl)thiazol-4(5H)-one] |
| 4.98 ± 0.77 | O=C1CSC(N2N=C(c3ccc(Oc4ccccc4)cc3)CC2c2ccc(O)c(O)c2)=N1 (stereo not drawn) [Compound 4k, 2-(5-(3,4-dihydroxyphenyl)-3-(4-phenoxyphenyl)-4,5-dihydro-1H-pyrazol-1-yl)thiazol-4(5H)-one] |
| 4.36 ± 0.65 | CCOc1ccc(Oc2ccc(C3=NN(C4=NC(=O)CS4)C(c4ccc(O)c(O)c4)C3)cc2)cc1 (stereo not drawn) [Compound 4l, 2-(5-(3,4-dihydroxyphenyl)-3-(4-(4-ethoxyphenoxy)phenyl)-4,5-dihydro-1H-pyrazol-1-yl)thiazol-4(5H)-one] |
| 4.94 ± 0.79 | CC(C)(C)c1ccc(Oc2ccc(C3=NN(C4=NC(=O)CS4)C(c4ccc(O)c(O)c4)C3)cc2)cc1 (stereo not drawn) [Compound 4m, 2-(3-(4-(4-(tert-butyl)phenoxy)phenyl)-5-(3,4-dihydroxyphenyl)-4,5-dihydro-1H-pyrazol-1-yl)thiazol-4(5H)-one] |
| 18.5 ± 2.32 | O=C1CSC(N2N=C(c3ccc(Br)cc3)CC2c2ccc(O)c(O)c2)=N1 (stereo not drawn) [Compound 4n, 2-(3-(4-bromophenyl)-5-(3,4-dihydroxyphenyl)-4,5-dihydro-1H-pyrazol-1-yl)thiazol-4(5H)-one] |

System: SHP2
Experiment: not given
Details: cited from earlier work

| Molecule | IC50 [µM] |
| --- | --- |
| NC(=O)C(c1ccccc1)S(=O)(=O)O (stereo not drawn) [Sulfophenyl acetic amide] | 1.5 |
| Tautomycetin | 2.9 |
